Assays:
CCRF-CEM leukemia cells = assay: Resazurin reduction assay (RRA), 72 h; assay type: cell-based; conditions: Homo sapiens, 72 h incubation
Source text: (§1) Cell lines used in this work included drug-sensitive and drug-resistant phenotypes of earlier reported origin. They were all provided by Prof. Dr. Thomas Efferth from his cell lines collection; they have being used in cytotoxicity screening by our team for a decade. These include two hematological cancer cell lines, namely, the drug-sensitive CCRF-CEM leukemia cell line and its multidrug-resistant P-gp-over-expressing subline CEM/ADR5000 cells and […] carcinoma cell lines, namely, U87.MG glioblastoma cell line and its EGFR-transfected U87.MGΔEGFR subline, HCT116 (p53^+/+) colon cancer cell line and its knockout clone HCT116 (p53^−/^−), and MDA-MB-231-pcDNA3 breast cancer cell line and its BCRP-transfected multidrug-resistant MDA-MB-231-BCRP clone 23 cell line, as well as the normal AML12 hepatocytes, used to compare with HepG2 liver cancer cells.
(§2) The RRA was applied to evaluate the cytotoxicity of botanicals, the isolated phytochemicals (1–5, 7, and 8), and doxorubicin on the cell growth as reported earlier. Cells treated with various samples at different concentrations were incubated for 72 h in humidified 5% CO2 atmosphere at 37°C. Cells were further coloured with resazurin and incubated for 1–2 h; the fluorescence was further measured with an Infinite M2000 Pro™ plate reader (Tecan, Crailsheim, Germany) at 544 nm as the excitation wavelength and 590 nm as the emission wavelength. The IC50 values represented the concentrations of the sample required to inhibit 50% of cell proliferation and were calculated from a calibration curve by linear regression using Microsoft Excel 2007 [29].

[1] = system: CEM/ADR5000 leukemia cells (P-gp-overexpressing); assay: Resazurin reduction assay (RRA), 72 h; assay type: cell-based; conditions: Homo sapiens; CEM/ADR5000, 72 h incubation
Source text: as §1, §2

[2] = system: HCT116 (p53+/+) colon adenocarcinoma cells; assay: Resazurin reduction assay (RRA), 72 h; assay type: cell-based; conditions: Homo sapiens, HCT-116, 72 h incubation
Source text: as §1, §2

[3] = system: HCT116 (p53-/-) colon cancer cells; assay: Resazurin reduction assay (RRA), 72 h; assay type: cell-based; conditions: Homo sapiens, HCT-116, 72 h incubation
Source text: as §1, §2

[4] = system: HepG2 hepatocarcinoma cells; assay: Resazurin reduction assay (RRA), 72 h; assay type: cell-based; conditions: Homo sapiens; HepG2, 72 h incubation
Source text: as §1, §2

[5] = system: MDA-MB-231-BCRP breast cancer cells; assay: Resazurin reduction assay (RRA), 72 h; assay type: cell-based; conditions: 72 h incubation
Source text: as §1, §2

[6] = system: MDA-MB-231-pcDNA breast cancer cells; assay: Resazurin reduction assay (RRA), 72 h; assay type: cell-based; conditions: 72 h incubation
Source text: as §1, §2

U87MG glioblastoma cells = assay: Resazurin reduction assay (RRA), 72 h; assay type: cell-based; conditions: Homo sapiens, U-87 MG, 72 h incubation
Source text: as §1, §2

[7] = system: U87MG.ΔEGFR glioblastoma cells; assay: Resazurin reduction assay (RRA), 72 h; assay type: cell-based; conditions: 72 h incubation
Source text: as §1, §2

normal AML12 hepatocytes = assay: Resazurin reduction assay (RRA), 72 h; assay type: cell-based; conditions: for IC50: Mus musculus, AML12 normal hepatocytes, 72 h incubation; for Selectivity index: IC50 normal AML12 hepatocytes divided by IC50 HepG2
Source text: as §1, §2

[8] = system: 9 tested cancer cell lines; assay: Resazurin reduction assay (RRA), whole panel; assay type: cell-based; conditions: for cytotoxic effect over the panel (in words): 9 tested cancer cell lines; for IC50: whole cell line panel, 72 h, read-out: IC50 in the cancer cells tested
Source text: as §1, §2

K562 leukemia cells = system: K562 leukemia cells; design: method as in PMID 31479710; conditions: cited from earlier work
CEM-ADR5000 cells = system: CEM-ADR5000 cells; design: method as in PMID 31360210; conditions: cited from earlier work
HepG2 cells = system: HepG2 cells; design: method as in PMID 31360210; conditions: cited from earlier work
CCRF-CEM cells [9] = assay: Flow cytometric cell cycle distribution (propidium iodide); assay type: cell-based; conditions: 24 h
Description: Various concentrations of botanical HRB, phytochemical 1, and doxorubicin or DMSO (solvent control) were used to treat CCRF-CEM cells (1 × 10^6 cells). Cells were further incubated for 24 h in humidified 5% CO2 atmosphere at 37°C and analyzed using a BD Accury C6 Flow Cytometer (BD Biosciences, Heidelberg, Germany) by measuring the propidium iodide fluorescence of individual nucleus, as described earlier. Experiments were conducted thrice independently with three parallel measurements.

CCRF-CEM cells [10] = assay: Apoptosis by annexin V/PI staining; assay type: cell-based; conditions: 24 h, 2 × IC50
Description: The CCRF-CEM cells (1 × 10^6; 1 ml) were also treated with HRB, compound 1 and doxorubicin for 24 h (in humidified 5% CO2 atmosphere at 37°C), and apoptosis was further assessed by flow cytometry using the flouresceinisothiocynate- (FITC-) conjugated annexin V/PI assay kit (eBioscience™Annexin V; Invitogen, San Diego, USA), as previously published. Briefly, treated cells were centrifuged at 1200 rpm for 5 min, then washed twice with ice-cold PBS, resuspended in 500 µl binding buffer, and stained with 5 µl FITC-conjugated annexin V ([…]) and 10 µl PI ([…]). After 15 min incubation at room temperature (RT) in the dark, cells were analyzed using a BD Accury C6 Flow Cytometer (BD Biosciences). Cells stained with only annexin V were evaluated as being in early apoptosis. Cells stained with both annexin V and propidium iodide were evaluated as being in late apoptosis or in a necrotic stage.

[11] = system: caspases 3/7 in CCRF-CEM cells; assay: Caspase-Glo 3/7 assay; assay type: cell-based; conditions: 6 h, compared to untreated cells
Description: (§3) Different concentrations of HRB and compound 1 were used to treat CCRF-CEM cells for 6 h. The activities of caspases were determined using Caspase-Glo 3/7, Caspase-Glo 8, and Caspase-Glo 9 Assay kits (Promega, Mannheim, Germany) by measuring the luminescence using an Infinite M2000 ProTM plate reader (Tecan), as reported previously.

[12] = system: caspase 8 in CCRF-CEM cells; assay: Caspase-Glo 8 assay; assay type: cell-based; conditions: 6 h, compared to untreated cells
Description: as §3

[13] = system: caspase 9 in CCRF-CEM cells; assay: Caspase-Glo 9 assay; assay type: cell-based; conditions: 6 h, compared to untreated cells
Description: as §3

[14] = system: reactive oxygen species in CCRF-CEM cells; assay: ROS production (H2DCFH-DA staining, flow cytometry); assay type: cell-based; conditions: 24 h
Description: Various concentrations of HRB and triterpenoid 1 were used to treat CCRF-CEM cells (1 × 10^6 cells); DMSO (solvent control); or hydrogen peroxide (H2O2; positive control). After 24 h incubation in humidified 5% CO2 atmosphere at 37°C, the production of ROS was evaluated using 2′,7′-dichlorodihydrofluorescein diacetate (H2DCFH-DA) (Sigma-Aldrich) staining, as described earlier.

[15] = system: all cancer cell lines tested in the present study; design: method as in PMID 24075210; conditions: cited from earlier work

Row | Molecule | IC50 (CCRF-CEM leukemia cells) | IC50 [1] | IC50 [2] | IC50 [3] | IC50 [4] | IC50 [5] | IC50 [6] | IC50 (U87MG glioblastoma cells) | IC50 [7] | IC50 (normal AML12 hepatocytes) | cytotoxic effect over the panel (in words) [8] | other results
1 | O=c1c2ccc(O)c(O)c2oc2cc(O)cc(O)c12 [Compound 5, 1,3,5,6-tetrahydroxyxanthone] | 38.6 ± 2.11 µM | 38.5 ± 4.07 µM | 75.5 ± 6.1 µM | 112 ± 8.49 µM | 64.7 ± 5.77 µM | 62.9 ± 5.32 µM | 75.2 ± 4.88 µM | 61.4 ± 3.39 µM | 59 ± 6.01 µM | 150 ± 7.03 µM |  | cytotoxic effect against K562 (K562 leukemia cells): 12.98 µg/mL; IC50 (K562 leukemia cells; read-out: cytotoxic effect against K562): 49.9 µM
2 | C[C@H]1C(=O)CC[C@@H]2[C@]1(C)CC[C@H]1[C@@]2(C)CC[C@@]2(C)C3CC(C)(C)CC[C@]3(C)CC[C@]12C (stereo partly drawn) [Compound 2, fridelan-3-one] |  |  |  |  |  |  |  |  |  |  |  | IC50 [8]: > 100 µM
3 | C=C(C)[C@@H]1CC[C@]2(C(=O)O)CC[C@]3(C)[C@H](CC[C@@H]4[C@@]5(C)CC[C@H](O)C(C)(C)[C@@H]5CC[C@]43C)[C@@H]12 [Compound 6, betulinic acid] |  |  |  |  |  |  |  |  |  |  |  | IC50 (CEM-ADR5000 cells): 7.65 µM; IC50 (HepG2 cells): 44.2 µM
4 | COc1cccc2c1C(=O)c1c(O)c3c(c(O)c1C2=O)C[C@@](O)(C(=O)CO)C[C@@H]3O[C@H]1C[C@H](N)[C@H](O)[C@H](C)O1 [Doxorubicin, reference compound] | 0.02 µM |  |  | 1.78 ± 0.08 µM | 4.56 ± 0.48 µM | 0.79 ± 0.08 µM | 0.13 ± 0.01 µM | 0.26 ± 0.03 µM | 0.98 ± 0.07 µM | 52.9 ± 4.09 µM |  | cell cycle arrest (phase, in words) (CCRF-CEM cells [9]): S and G2/M phase arrest
5 | C[C@H]1C(=O)CC[C@@H]2[C@]1(C)CC[C@H]1[C@@]2(C)CC[C@@]2(C(=O)O)C3CC(C)(C)CC[C@]3(C)CC[C@]12C (stereo partly drawn) [Compound 1, trichadonic acid] | 14.4 ± 0.53 µM | 18.3 ± 1.56 µM | 17.4 ± 1.84 µM | 44.2 ± 3.21 µM | 21.7 ± 3.18 µM | 15 ± 1.17 µM | 16.5 ± 0.74 µM | 16.2 ± 1.09 µM | 14.7 ± 1.55 µM | 47.3 ± 0.81 µM |  | IC50 [8]: 14.4 to 44.2 µM; cell cycle arrest (phase, in words) (CCRF-CEM cells [9]): cell cycle arrest in the Go/G1 phase; cells in sub-G0/G1 phase (CCRF-CEM cells [9]; 1/4 × IC50): 1.86%; cells in sub-G0/G1 phase (CCRF-CEM cells [9]; 2 × IC50): 17.40%; annexin V (+)/PI (+) cells (CCRF-CEM cells [10]): 52.5%; increase of caspases 3/7 activity [11]: 2.52 fold; increase of caspase 8 activity [12]: 2.62 fold; increase of caspase 9 activity [13]: 2.23 fold; ROS production ([14]; 7.22 µM): 12.35%; ROS production ([14]; 57.76 µM): 68.12%; ROS production ([14]; 2 × IC50): ≤ 68.12%
6 | OO [H2O2, Hydrogen peroxide, reference compound] |  |  |  |  |  |  |  |  |  |  |  | ROS levels ([14]; 50 µM): 94.30%
7 | cudraxanthone I |  |  |  |  |  |  |  |  |  |  |  | IC50 [15]: < 10 µM

Further lines, with some results ahead:

Row | IC50 (CCRF-CEM leukemia cells) | IC50 [1] | IC50 [2] | IC50 [3] | IC50 [4] | IC50 [5] | IC50 [6] | IC50 (U87MG glioblastoma cells) | IC50 [7] | Molecule | IC50 (normal AML12 hepatocytes) | cytotoxic effect over the panel (in words) [8] | other results
8 | 16.3 ± 2.12 µM | 43.5 ± 2.97 µM | 37.8 ± 2.92 µM | > 85.5 µM | 31.3 ± 1.19 µM | 30.5 ± 1.88 µM | 36.9 ± 2.73 µM | 35.5 ± 3.28 µM | 30.6 ± 3.14 µM | COc1cc(C2Oc3ccc4c(=O)c5ccccc5oc4c3OC2CO)cc(OC)c1O (stereo not drawn) [Compound 8, 3′-hydroxymethyl-2′-(4″-hydroxy-3″,5″-dimethoxyphenyl)-5′,6′:5,6-(xanthone)-1′,4′-dioxane] | > 85.5 µM | selective cytotoxic effects | 
9 | 23.3 ± 1.46 µM | 54 ± 4.38 µM | > 91.7 µM | > 91.7 µM | 25.2 ± 1.69 µM | 22.2 ± 2.88 µM | 20.7 ± 1.32 µM | 29.7 ± 1.77 µM | 12.7 ± 0.75 µM | COc1cc(C2Oc3ccc4c(=O)c5c(O)cc(O)cc5oc4c3OC2CO)cc(OC)c1O (stereo not drawn) [Compound 7, 3′-hydroxymethyl-2′-(4″-hydroxy-3″,5″-dimethoxyphenyl)-5′,6′:5,6-(6,8-dihydroxyxanthone)-1′,4′-dioxane] | 20.9 ± 1.17 µM | selective cytotoxic effects | Selectivity index (normal AML12 hepatocytes): 0.83
10 | 16.8 ± 0.96 µM | 53 ± 3.08 µM | 46.7 ± 3.38 µM | > 165 µM | 44.2 ± 2.65 µM | 33.6 ± 1.99 µM | 43.8 ± 3.47 µM | 74.4 ± 4.75 µM | 45 ± 5.22 µM | COc1cccc2c(=O)c3cc(O)ccc3oc12 [Compound 3, 2-hydroxy-5-methoxyxanthone] | > 165 µM | selective cytotoxic effects | 
11 | 19.9 ± 2.12 µM | 23.2 ± 1.66 µM | 40.2 ± 3.09 µM | > 154 µM | 32.4 ± 3.72 µM | 20.4 ± 1.17 µM | > 154 µM | 106 ± 6.74 µM | 30.4 ± 2.91 µM | O=c1c2cc(O)c(O)cc2oc2cc(O)cc(O)c12 [Compound 4, 1,3,6,7-tetrahydroxyxanthone] | 45.4 ± 3.52 µM | selective cytotoxic effects | Selectivity index (normal AML12 hepatocytes): 1.40

Reference: article PMC7532997, “Cytotoxic Constituents of the Bark of Hypericum roeperianum towards Multidrug-Resistant Cancer Cells” (Evidence-based Complementary and Alternative Medicine : eCAM, 2020)
